For series [1], the system named is human NSCLC cell line HCC827. The experiment in a line: SCID mouse xenograft, tumor growth (% T/C). As to conditions: for % T/C value: day 34. It counts as in vivo. The procedure:
FBS was obtained from ATCC and all other reagents were obtained from Invitrogen Corp. (Carlsbad, Calif., USA). Cells that had been cryopreserved in liquid nitrogen were rapidly thawed at 37° C. and transferred to a tissue culture flask containing growth media and then incubated at 37° C. in a 5% CO2 incubator. […] Cultures were passaged by washing with 10 mL of room temperature phosphate buffered saline (PBS) and then disassociating cells by adding 5 mL 1× trypsin-EDTA and incubating at 37° C. until the cells detached from the surface of the flask. To inactivate the trypsin, 5 mL of growth media was added and then the contents of the flask were centrifuged to pellet the cells. The supernatant was aspirated and the cell pellet was resuspended in 10 mL of growth media and the cell number determined using a hemocytometer. Cells were seeded into 175 cm^2 flasks containing 50 mL of growth media and incubated at 37° C. in a 5% CO2 incubator.

Series [2] is described as follows: In vivo pharmacokinetic (drug-drug interaction) study in SCID mice, plasma by HPLC. More on the design: species or system mouse. As to conditions: for AUCINF / T½ / Cmax: plasma; for Cmax: female, CB17/Icr-Prkdc^scid/Crl (SCID), mouse. An excerpt: Six to eight week old, female CB17/Icr-Prkdc^scid/Crl (SCID) mice were obtained from Charles River Laboratories (Wilmington, Mass., USA). Animals were housed 4-5/cage in micro-isolators, with a 12 hr/12 hr light/dark cycle, acclimated for at least 1 week prior to use and fed normal laboratory chow ad libitum.

In a further series the target is JAK2 mutant JAK2V617F (Homo sapiens, UniProt O60674, V617F). As to conditions: cited from earlier work.
Sequence of JAK2 mutant JAK2V617F (O60674 whole entry V617F): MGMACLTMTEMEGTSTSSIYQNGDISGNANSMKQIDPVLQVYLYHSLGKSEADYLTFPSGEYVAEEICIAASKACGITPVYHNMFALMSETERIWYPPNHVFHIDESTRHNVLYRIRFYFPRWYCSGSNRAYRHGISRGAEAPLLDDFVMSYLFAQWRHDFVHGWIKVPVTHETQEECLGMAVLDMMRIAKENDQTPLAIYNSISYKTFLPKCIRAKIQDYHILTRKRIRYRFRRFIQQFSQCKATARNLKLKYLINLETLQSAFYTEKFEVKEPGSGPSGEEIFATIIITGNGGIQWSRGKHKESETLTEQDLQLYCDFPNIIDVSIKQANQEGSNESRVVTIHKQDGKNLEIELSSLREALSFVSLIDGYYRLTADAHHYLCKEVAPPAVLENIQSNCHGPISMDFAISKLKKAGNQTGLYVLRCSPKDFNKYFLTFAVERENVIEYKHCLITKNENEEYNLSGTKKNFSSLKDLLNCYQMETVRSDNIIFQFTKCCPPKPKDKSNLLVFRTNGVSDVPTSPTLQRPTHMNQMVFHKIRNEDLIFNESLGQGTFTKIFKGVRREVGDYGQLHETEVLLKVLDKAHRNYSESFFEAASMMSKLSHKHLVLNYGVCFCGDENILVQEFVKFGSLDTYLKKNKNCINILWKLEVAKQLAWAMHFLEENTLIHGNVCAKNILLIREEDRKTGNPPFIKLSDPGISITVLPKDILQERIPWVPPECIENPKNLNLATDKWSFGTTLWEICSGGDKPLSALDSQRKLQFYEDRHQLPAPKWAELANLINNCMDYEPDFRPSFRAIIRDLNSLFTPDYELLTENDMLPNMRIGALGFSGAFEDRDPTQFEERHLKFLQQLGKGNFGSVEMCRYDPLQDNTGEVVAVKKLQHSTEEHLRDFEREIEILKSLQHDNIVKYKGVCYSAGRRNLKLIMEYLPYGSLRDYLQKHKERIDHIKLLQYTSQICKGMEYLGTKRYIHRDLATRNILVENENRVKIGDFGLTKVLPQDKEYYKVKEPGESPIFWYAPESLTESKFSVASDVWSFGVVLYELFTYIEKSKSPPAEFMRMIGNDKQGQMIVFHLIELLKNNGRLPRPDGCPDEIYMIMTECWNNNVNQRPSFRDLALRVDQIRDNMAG
Series [3] concerns RERF-LC-AI^IVP human lung tumor cells. Description: Nude mouse xenograft, tumor growth. Format: in vivo. As to conditions: 5 times per week, 15 doses. The procedure: The human squamous non-small cell lung cancer cell line, RERF-LC-AI (RCB0444; S. Kyoizumi, et al., Cancer. Res. 45:3274-3281, 1985), was obtained from the Riken Cell Bank (Tsukuba, Ibaraki, Japan). The cell line was cultured in growth media prepared from 50% Dulbecco's Modified Eagle Medium (high glucose), 50% RPMI Media 1640, 10% fetal bovine serum (FBS), 1% 100× L-glutamine, 1% 100× penicillin-streptomycin, 1% 100× sodium pyruvate and 1% 100×MEM non-essential amino acids. FBS was obtained from American Type Culture Collection (Manassas, Va., USA) and all other reagents were obtained from Invitrogen Corp. (Carlsbad, Calif., USA). Approximately 4-5×10(6) cells that had been cryopreserved in liquid nitrogen were rapidly thawed at 37° C. and transferred to a 175 cm^2 tissue culture flask containing 50 ml of growth media and then incubated at 37° C. in a 5% CO2 incubator.
The growth media was replaced every 2-3 days until the flask became 90% confluent, typically in 5-7 days. […] The supernatant was aspirated and the cell pellet was resuspended in 10 ml of growth media and the cell number determined using a hemocytometer. […]
Studies were conducted on animals between 8 and 12 weeks of age at implantation. […] Tumor volumes (V) were calculated by caliper measurement of the width (W), length (L) and thickness (T) of tumors using the following formula: V=0.5236×(L×W×T). […]

A short description of series [4]: Body weight change in nude mouse xenograft study. Format: in vivo. As to conditions: 200 mg/kg body weight i.p., 5 times per week, 15 doses, tumor-bearing nude mice. The procedure: The Hsp90 inhibitor, 17-allylamino-17-demethoxygeldanamycin (17-AAG), was employed as a positive control (Albany Molecular Research, Albany, N.Y., USA). […] Animals were intraperitoneally (i.p.) injected with this solution at 10 ml per kg body weight on a schedule of 5 days per week (Monday, Tuesday, Wednesday, Thursday and Friday, with no dosing on Saturday and Sunday) for a total of 15 doses.

Where [5] appears, read: 50 mg/kg Compound 1 plus 25 mg/kg erlotinib HCl, SCID mice.
The mark [6] stands for this setting: analyte erlotinib HCl, erlotinib HCl 25 mg/kg + Compound 1 50 mg/kg, single dose.
Where [7] appears, read: analyte erlotinib HCl, erlotinib HCl 25 mg/kg alone, single dose.
The mark [8] stands for this setting: analyte Compound 1, Compound 1 50 mg/kg + erlotinib HCl 25 mg/kg, single dose.
Where [9] appears, read: analyte Compound 1, Compound 1 50 mg/kg alone, single i.v. dose.

“Also recorded” adds a separate entry of the source. Where a name gives a salt, the structure may show the parent alone.

In the case of `C#Cc1cccc(Nc2ncnc3cc(OCCOC)c(OCCOC)cc23)c1` [erlotinib HCl], the “% T/C value” in series [1] (erlotinib HCl 25 mg/kg p.o. once per week) was determined as 23%. In addition, the “effect of Compound 1 on plasma half-life, Cmax and total plasma exposure (AUCinf) of erlotinib HCl” value in series [2] (setting [5]) is reported as “little or no effect”; in series [2] (50 mg/kg Compound 1 plus 25 mg/kg erlotinib HCl, SCID mice, listed as erlotinib) it was “little effect”. Further, the values for the AUCINF in series [2] (setting [6]) and in series [2] (setting [7]) were 39.0 μMXHR and 28.1 μMXHR, respectively. Further, the T½ was found to be 2.8 h in series [2] (setting [6]) and 1.7 h in series [2] (setting [7]). Besides, the “increase in total plasma exposure of erlotinib HCl” value in series [2] (combination with Compound 1 versus erlotinib HCl alone) came out at 39%. For the same compound, the highest concentration (Cmax) in series [2] (intravenous, 25 mg/kg, analyte erlotinib HCl, erlotinib HCl 25 mg/kg + Compound 1 50 mg/kg, single dose) is 4.94 µM; in series [2] (intravenous, 25 mg/kg, analyte erlotinib HCl, erlotinib HCl 25 mg/kg alone, single dose), 4.11 µM. Moreover, at JAK2 mutant JAK2V617F, the “inhibition of JAK2V617F” value is reported as “potently inhibits”.
For the compound `CCc1cc(-c2nnc(S)n2-c2ccc(OC)c3c2ccn3C(C)C)c(O)cc1O` [Compound 26, 3-(2,4-DIHYDROXY-5-ETHYL- PHENYL)-4-(1-ISOPROPYL-7- METHOXY-INDOL-4-YL)-5- MERCAPTO[1,2,4]TRIAZOLE], the “growth rate of RERF-LC-AI^IVP human lung tumor cells in nude mice” value in series [3] (200 mg/kg body weight i.p.) was “inhibited tumor growth; also recorded: decreased the growth rate”. In addition, in series [4], the “overt toxicity (effect on body weights)” value was “not associated with overt toxicity; also recorded: not overtly toxic”.
For `C=CCNC1=C2C[C@@H](C)C[C@H](OC)[C@H](O)[C@@H](C)/C=C(\C)[C@H](OC(N)=O)[C@@H](OC)/C=C\C=C(/C)C(=O)NC(=CC1=O)C2=O` [Compound 17-AAG, 17-allylamino-17-demethoxygeldanamycin, reference compound], in series [3] (75 mg/kg body weight i.p.), the “growth rate of RERF-LC-AI^IVP human lung tumor cells in nude mice” value is given as “inhibited tumor growth; also recorded: decreased the growth rate”.
Take `CC(C)c1cc(-c2nnc(O)n2-c2ccc3c(ccn3C)c2)c(O)cc1O` [Compound 1, 3-(2,4-DIHYDROXY-5- ISOPROPYL-PHENYL)-4-(1- METHYL-INDOL-5-YL)-5- HYDROXY-[1,2,4]TRIAZOLE]: the “HCC827 tumor growth in SCID mice” value in series [1] (Compound 1 50 mg/kg i.v. once per week, 3 doses, 50 mg/kg) was “moderately inhibited HCC827 tumor growth”. Besides, the “% T/C value” in series [1] (Compound 1 50 mg/kg i.v. once per week) is reported as 15%. In addition, the “effect of erlotinib HCl on plasma half-life, Cmax and total plasma exposure (AUCinf) of Compound 1” value in series [2] (setting [5]) was “no significant effect; also recorded: did not affect”. Also, the values for the AUCINF in series [2] (setting [8]) and in series [2] (setting [9]) were 36.0 μMXHR and 38.5 μMXHR, respectively. Also, the T½ in series [2] (setting [8]) came to 4.5 h; in series [2] (setting [9]), 4.7 h. The Cmax in series [2] (iv, 50 mg/kg, analyte Compound 1, Compound 1 50 mg/kg + erlotinib HCl 25 mg/kg, single dose) amounted to 93.4 µM; in series [2] (iv, 50 mg/kg, analyte Compound 1, Compound 1 50 mg/kg alone, single i.v. dose), 118 µM.
